From PMC12427341, “Phytochemical-Mediated Modulation of Doramectin Pharmacology in Sheep: Exploring the Cinnamaldehyde–Pink Grapefruit Combination” (Animals : an Open Access Journal from MDPI, 2025)
Values joined by “and” are separate entries in the source; they are usually repeats but may differ in a detail not shown here. Equal entries are not always repeated. Marks after values point to notes of the source that are not given here.

Experiments:
[1] = system: Syphacia muris; parameters: method as in doi:10.2478/acve-2018-0036; settings: rats infected with Syphacia muris; cited from earlier work
[2] = system: Ascaris suum; parameters: method as in PMID 26420588; settings: pigs; cited from earlier work
[3] = rats; cited from earlier work
[4] = system: P-glycoprotein
Method: (§6) A series of ex vivo experiments were performed to evaluate the interaction of DRM, CNM–PGF, or LPM with ABC transporters. […] For this assay, sheep ileum samples were obtained from a local slaughterhouse (Ayacucho, Argentina). […] The incubation process was started immediately after obtaining the tissue. During the preparation and assembly process, intestinal tissue was always maintained between 0–4 °C. The tissue was then mounted vertically in a diffusion chamber with an internal surface area of 0.8 cm^2. […] Both the mucosal (M) and serosal (S) sides were filled with 7 and 5 mL of prewarmed and oxygenated Krebs buffer, respectively. […] During preparation, chambers were preincubated to slough off any dead cells, and during this period, the tissue were exposed in the donor side to the presence or absence of 5 µM of DRM; 1.5 mM of CNM–PGF; or 50 µM of LPM, a well-established P-gp modulator, which was used as a positive control [25, 26]. After a 20 min equilibration period, Krebs buffer was completely replaced with fresh medium fortified with 0.5 µM of Rho123 as a substrate to the M or S side of the chambers for measuring the absorption and secretion processes, respectively. Thus, Rho123 was incubated alone (control assays) or in the presence of DRM, CNM–PGF, or LPM. Tissues were incubated for 4 h, and each hour, aliquots of 1 mL were collected from the receptor side and replaced with fresh Krebs buffer.
(§7) Samples from the receptor side (1 mL) were mixed with 2 mL of distillated water to reach a final volume of 3 mL.
(§8) Values of unidirectional transepithelial effective permeability (Peff) (cm.s^−1) were calculated for each chamber according to the following equation: Peff=dC/dT1/A.C0
(§9) The appearance rate on the receiving compartment is dC/dT, calculated from the slope of the concentration versus time curve over a time period of 4 h (Rho123); A is the exposed area (cm^2) of the tissue in the Ussing chamber (0.8 cm^2), and C0 is the initial drug concentration (ng/mL) in the donor compartment. The efflux ratio (ER) was calculated as follows: ER=mean Peff S−M/mean Peff M−S
(§10) The intestinal absorption is represented by permeability in the M–S direction. The S–M side can also be used to measure permeability, in this case characterizes intestinal secretion. A higher Peff S–M compared to the Peff M–S is indicative of carrier-mediated transport.

[5] = Plasma pharmacokinetics of DRM after oral administration alone or with CNM–PGF or LPM; settings: DRM 0.2 mg/kg oral emulsion; sheep n = 7; mean ± SD
Method: (§1) An in vivo assay was performed to evaluate the pharmacokinetics and the efficacy of DRM orally administered alone or in combination with CNM–PGF and LPM against resistant gastrointestinal nematodes in lambs. For the trial, 27 naturally infected Corriedale and Texel crossbreed lambs (average weight, 33 kg) were used. On day −1, all lambs were checked for EPG and tagged, and the individual body weights were recorded. As in the previous assay (Trial 2.1), the selection of the animals was based on EPG. […] Lambs were housed in a paddock with access to hay, commercial concentrates, and water ad libitum. Lambs were assigned into three experimental groups. Group A received DRM (0.2 mg/kg) as an oral emulsion (n = 7). Lambs in groups B and C received an emulsion containing DRM (a single dose of 0.2 mg/kg) and either LPM (n = 7) (three oral doses of 0.3 mg/kg, every 24 h) or CNM–PGF (n = 7) (three oral doses containing 72 and 64 mg/kg of CNM and PGF, respectively, every 24 h). Group D served as the untreated control (n = 6). As appropriate, the final concentrations of the active ingredients within the formulations were DRM 5%, CNM 18%, PGF 16%, LPM 30%. The compounds were diluted in Tween-80 11%, sesame oil 1–30%, and distilled water. The formulations were prepared using a similar method to that used in the previously described trial (Trial 2.1).
(§2) For the plasma disposition of DRM, jugular blood samples (2 mL) were collected into heparinized vacutainer tubes before treatment and at 3, 6, 9, 24, 30, 48, and 54 h and 3, 4, 7, 10, and 14 days post treatment. Blood samples were centrifuged at 2000× g for 15 min; the recovered plasma was kept in labeled vials and stored at −20 °C until the analysis of DRM by high performance liquid chromatography (HPLC). The effect of each treatment was indirectly estimated by collecting fecal samples on days −1 and 14 of administration to evaluate the FECR.
(§3) Data are expressed as mean ± standard deviation (SD). Rho123 transport across the ileum is presented as ng of Rho123 in the receptor side of the chamber. The plasma concentration versus time curves obtained after treatment of each animal were fitted with the PK Solutions 2.0 software (summit Research Services, Ashland, OH, USA) software. Pharmacokinetic parameters were determined using a noncompartmental model method. The evaluation of the FECR was calculated according to the following formula [33], with modifications: FECR %=100 × (1−T2/T1) where T1 and T2 are the arithmetic mean EPG counts in the treated group on days 0 and 14, respectively. The 90% confidence intervals were calculated following the method of reference.

[6] = parameters: method as in PMID 11106995; settings: sheep; cited from earlier work
[7] = system: resistant gastrointestinal nematodes; experiment: Fecal egg count reduction test (FECRT), trial 1: DRM, CNM–PGF and their combination as oral emulsions; type: in vivo, lambs
Method: The coadministration of DRM and CNM–PGF, both by an oral emulsion, was evaluated in lambs. The trial involved 35 Corriedale and Texel crossbred lambs (mean body weight, 26 kg) naturally infected with resistant gastrointestinal nematodes and was conducted in a sheep experimental unit (Estación Experimental INTA, Balcarce, Argentina). […] Animals were kept in a paddock and fed hay ad libitum, together with commercial concentrate feed. All animals had free access to water. Lambs were assigned to four experimental groups sorted by EPG count. Group A received an emulsion containing DRM (single dose of 0.2 mg/kg) (n = 9). Group B received CNM–PGF orally as an emulsion (two doses of 100 mg/kg every 24 h) (n = 9). Lambs of Group C were treated with an emulsion containing both DRM and CNM–PGF on the first day, and the second day, they received an emulsion of CNM–PGF only (n = 9). Group D included untreated lambs (n = 8). […] CNM–PGF was formulated as an emulsion composed of Tween-80/sesame oil (3:1) 20% at a final concentration of 15% CNM and 15% PGF. Briefly, the CNM–PGF emulsion was prepared using the high-energy ultrasonic method. CNM and PGF were mixed with sesame oil to form the oil phase. The oil phase was added dropwise to the aqueous phase containing Tween-80 and distillated water while stirring, and the emulsion formed was then subjected to ultrasonic emulsification for 15 min. The same steps were performed for the DRM + CNM–PGF emulsion, the synthetic compound was added to the oil phase, and their final concentration was 0.03%. […] To evaluate the effect of the treatment, individual fecal samples from all the lambs were collected on days −1, 7, and 14 of treatment, and the fecal egg count reduction (FECR) was calculated. The coprocultures were prepared with 10 g of feces from a pool of each experimental group obtained on days −1 and 14. The nematode genera and species were identified through the third-stage larvae recovered from the coprocultures.
as §3
The statistical analysis was performed using Prism 8.0 (GraphPad Software, San Diego, CA, USA). ANOVA or Kruskal–Wallis tests were used for the statistical comparison. Tukey or Dunn tests were used for post hoc multiple comparisons. The egg counts obtained for each treatment on Day 14 were compared with the corresponding baseline counts on Day 0 using the Wilcoxon matched-pairs signed rank test. Differences were considered statistically significant at p < 0.05.

[8] = system: P-glycoprotein; experiment: Ex vivo intestinal transport of rhodamine 123 across sheep ileum (diffusion chamber model); settings: 4 h; for Peff M–S of Rho123 in the presence of the modulator: 0.5 µM Rho123, 5 µM DRM, 1.5 mM CNM–PGF or 50 µM LPM
Method: as §6, §7, §8, §9, §10

[9] = system: Haemonchus spp.; experiment: Efficacy by nematode genus (coprocultures), trial 1; type: in vivo, Haemonchus contortus; settings: day 14, oral, lambs n = 9
Method: (§4) The coadministration of DRM and CNM–PGF, both by an oral emulsion, was evaluated in lambs. The trial involved 35 Corriedale and Texel crossbred lambs (mean body weight, 26 kg) naturally infected with resistant gastrointestinal nematodes and was conducted in a sheep experimental unit (Estación Experimental INTA, Balcarce, Argentina). There, a parasite control program based on the intensive use of antiparasitic drugs has been implemented for many years, leading to anthelmintic resistance to MLs and benzimidazoles. Animals were selected based on worm egg per gram counts (EPG), with an average EPG count of 2102 ± 1662. Animals were kept in a paddock and fed hay ad libitum, together with commercial concentrate feed. All animals had free access to water. Lambs were assigned to four experimental groups sorted by EPG count. Group A received an emulsion containing DRM (single dose of 0.2 mg/kg) (n = 9). Group B received CNM–PGF orally as an emulsion (two doses of 100 mg/kg every 24 h) (n = 9). Lambs of Group C were treated with an emulsion containing both DRM and CNM–PGF on the first day, and the second day, they received an emulsion of CNM–PGF only (n = 9). Group D included untreated lambs (n = 8). […] To evaluate the effect of the treatment, individual fecal samples from all the lambs were collected on days −1, 7, and 14 of treatment, and the fecal egg count reduction (FECR) was calculated. […]

[10] = system: Trichostrongylus spp.; experiment: as above; type: in vivo; settings: day 14, oral, lambs n = 9
Method: as §4, with “8). The selected phytochemical dose was based on previous in vivo studies with other monoterpenes, such as thymol and carvone, which were administered to lambs at doses ranging from 100 to 150 mg/kg, without adverse effects. CNM–PGF was formulated as an emulsion composed of Tween-80/sesame oil (3:1) 20% at a final concentration of 15% CNM and 15% PGF. Briefly, the CNM–PGF emulsion was prepared using the high-energy ultrasonic method. CNM and PGF were mixed with sesame oil to form the oil phase. The oil phase was added dropwise to the aqueous phase containing Tween-80 and distillated water while stirring, and the emulsion formed was then subjected to ultrasonic emulsification for 15 min.” for “8).”

[11] = system: Cooperia spp.; experiment: as above; type: in vivo; settings: day 14, oral, lambs n = 9
Method: as §4, with “8). The selected phytochemical dose was based on previous in vivo studies with other monoterpenes, such as thymol and carvone, which were administered to lambs at doses ranging from 100 to 150 mg/kg, without adverse effects. CNM–PGF was formulated as an emulsion composed of Tween-80/sesame oil (3:1) 20% at a final concentration of 15% CNM and 15% PGF. Briefly, the CNM–PGF emulsion was prepared using the high-energy ultrasonic method. CNM and PGF were mixed with sesame oil to form the oil phase. The oil phase was added dropwise to the aqueous phase containing Tween-80 and distillated water while stirring, and the emulsion formed was then subjected to ultrasonic emulsification for 15 min.” for “8).”

[12] = system: Teladorsagia spp.; experiment: as above; type: in vivo; settings: day 14, oral, lambs n = 9
Method: as §4, with “8). The selected phytochemical dose was based on previous in vivo studies with other monoterpenes, such as thymol and carvone, which were administered to lambs at doses ranging from 100 to 150 mg/kg, without adverse effects. CNM–PGF was formulated as an emulsion composed of Tween-80/sesame oil (3:1) 20% at a final concentration of 15% CNM and 15% PGF. Briefly, the CNM–PGF emulsion was prepared using the high-energy ultrasonic method. CNM and PGF were mixed with sesame oil to form the oil phase. The oil phase was added dropwise to the aqueous phase containing Tween-80 and distillated water while stirring, and the emulsion formed was then subjected to ultrasonic emulsification for 15 min.” for “8).”

[13] = system: Haemonchus spp.; experiment: Efficacy by nematode genus, trial 2; type: in vivo, Haemonchus contortus; settings: day 14, oral, lambs n = 7
Description: (§5) Lambs were assigned into three experimental groups. […] Group D served as the untreated control (n = 6).

[14] = system: Trichostrongylus spp.; experiment: Efficacy by nematode genus, trial 2; type: in vivo; settings: day 14, oral, lambs n = 7
Description: as §5

[15] = system: Teladorsagia spp.; experiment: Efficacy by nematode genus, trial 2; type: in vivo; settings: day 14, oral, lambs n = 7
Description: as §5

[16] = system: resistant gastrointestinal nematodes; experiment: Fecal egg count reduction test (FECRT), trial 2: DRM alone or with CNM–PGF or LPM; type: in vivo, lambs
Method: as §1, §2, §3
The statistical analysis was performed using Prism 8.0 (GraphPad Software, San Diego, CA, USA). ANOVA or Kruskal–Wallis tests were used for the statistical comparison. […]

[17] = system: gastrointestinal nematodes; settings: cited from earlier work; for Efficacy of single phytochemicals: sheep, low to moderate efficacy
[18] = system: C. elegans; parameters: method as in doi:10.1155/2020/1740938; settings: in vitro exposure; cited from earlier work
[19] = system: P-glycoprotein; experiment: in vitro; settings: Corriedale and Texel crossbreed, sheep
Method: as §6, §7, §8, §9, §10

[20] = day 14, lower-upper confidence limit

O=C/C=C/c1ccccc1 [CNM, cinnamaldehyde]
In vivo efficacy [1]: no in vivo efficacy was observed | In vivo anthelmintic effect [2]: failed to exert any in vivo anthelmintic effect | Oral LD50 [3]: approximately 2220 mg/kg

CO[C@H]1C[C@H](O[C@H]2[C@H](C)O[C@@H](O[C@@H]3/C(C)=C/C[C@@H]4C[C@@H](C[C@]5(C=C[C@H](C)[C@@H](C6CCCCC6)O5)O4)OC(=O)[C@@H]4C=C(C)[C@@H](O)[C@H]5OC/C(=C\C=C\[C@@H]3C)[C@]54O)C[C@@H]2OC)O[C@@H](C)[C@@H]1O [DRM, doramectin]
Efflux ratio (ER) of Rho123 in the presence of the modulator [4]: 4.66 | AUC0–t of DRM in plasma [5]: 90.84 ± 33.61 ^a ng d/mL | Cmax of DRM in plasma [5]: 25.76 ± 10.01 ^a ng/mL | T max of DRM in plasma [5]: 0.93 ± 0.47 ^a days | T ½ el (elimination half-life) of DRM [5]: 2.19 ± 0.41 ^a days | Absolute oral bioavailability [6]: 25% | Mean egg per gram (EPG) counts (±SD), Day 14 ([7]; 14 days after oral administration, DRM 0.2 mg/kg single dose, CNM–PGF two doses of 100 mg/kg every 24 h, lambs n = 9): 910 ± 2548 EPG and 910 ± 2548 ^abB EPG | Mean egg per gram (EPG) counts (±SD), Day 0 ([7]; baseline before treatment, lambs n = 9, mean ± SD): 2716 ± 2641 ^aA EPG | Prevalence of egg count negativization (percentage of animals with an egg count of zero) ([7]; day 14): 40% | FECR (LCL-UCL), 90% confidence interval [7, 20]: (0–98) % | FECR (%) ([7]; day 14, oral emulsion, lambs n = 9): 66% | Peff M–S of Rho123 in the presence of the modulator [8]: 3.83 ± 1.87 ×10⁻⁶ cm/s | Efficacy (%) against Haemonchus spp. [9]: 0% | Efficacy (%) against Trichostrongylus spp. [10]: 100% | Efficacy (%) against Cooperia spp. [11]: 100% | Efficacy (%) against Teladorsagia spp. [12]: 100% | Efficacy (%) against Haemonchus spp. [13]: 0% | Efficacy (%) against Trichostrongylus spp. [14]: 100% | Efficacy (%) against Teladorsagia spp. [15]: 82% | Mean egg per gram (EPG) counts (±SD), Day 14 ([16]; 14 days after oral DRM 0.2 mg/kg, LPM three doses of 0.3 mg/kg, CNM–PGF three doses of 72 and 64 mg/kg, every 24 h, lambs n = 7): 694 ± 944 EPG and 694 ± 944 ^aB EPG | Mean egg per gram (EPG) counts (±SD), Day 0 ([16]; baseline before treatment, lambs n = 7, mean ± SD): 1586 ± 984 ^aA EPG | FECR (LCL-UCL), 90% confidence interval [16, 20]: (9–88) % | FECR (%) ([16]; day 14, oral emulsion, lambs n = 7): 56%

CN(C)C(=O)C(CCN1CCC(O)(c2ccc(Cl)cc2)CC1)(c1ccccc1)c1ccccc1 [LPM, loperamide]
Peff M–S of Rho123 in the presence of the modulator [8]: 3.84 ± 1.02 ×10⁻⁶ cm/s

C=C(C)[C@H]1CC=C(C)CC1 [Limonene, limonene]
FECR ([17]; long-term administration through feed, coadministered with a single dose of ivermectin, adult nematode number unaffected): 82% | Survival rate of C. elegans [18]: 30%

COC(=O)c1ccccc1-c1c2ccc(=N)cc-2oc2cc(N)ccc12 [Rho123, rhodamine 123]
efflux ratio at 4 h, 0.5 µM [19]: 10.3 | Rho123 absorption, Peff M–S ([8]; 0.5 µM Rho123 alone (control)): 1.39 ± 0.343 ×10⁻⁶ cm/s | Rho123 secretion, Peff S–M ([8]; 0.5 µM Rho123 alone (control)): 11.1 ± 3.64 ×10⁻⁶ cm/s

C=C(C)C1CC=C(C)C(=O)C1 (stereo not shown) [carvone]
Efficacy of single phytochemicals [17]: 0–47%

Cc1ccc(C(C)C)c(O)c1 [thymol]
Efficacy of single phytochemicals [17]: 0–47%
